# Laboratory results as given in ChEMBL document CHEMBL3132779, “Design, synthesis and biological evaluation of imidazo[1,5-a]pyridinePBD conjugates as potential DNA-directed alkylating agents” (Medchemcomm, 2013).
# The source made the active and inactive calls. No cut-off for these calls is given here.
# Experiments:
# DNA = assay: Binding affinity to calf thymus DNA assessed as change in melting temperature at 1:5 drug/DNA ratio at 37 degC after 18 hrs by spectrophotometry; type: nucleic-acid assay; conditions: Bos taurus
# MCF7 [1] = assay: Cell cycle arrest in human MCF7 cells assessed as accumulation at G1 phase at 4 uM after 24 hrs by propidium iodide staining-based flow cytometric analysis (reference value: 56.48%); type: functional
# MCF7 [2] = assay: Cell cycle arrest in human MCF7 cells assessed as accumulation at G0 phase at 2 uM after 24 hrs by propidium iodide staining-based flow cytometric analysis (reference value: 3.36%); type: functional
# MCF7 [3] = assay: Cell cycle arrest in human MCF7 cells assessed as accumulation at G2/M phase at 2 uM after 24 hrs by propidium iodide staining-based flow cytometric analysis (reference value: 27.93%); type: functional
# MCF7 [4] = assay: Cell cycle arrest in human MCF7 cells assessed as accumulation at G1 phase at 2 uM after 24 hrs by propidium iodide staining-based flow cytometric analysis (reference value: 56.48%); type: functional
# MCF7 [5] = assay: Cell cycle arrest in human MCF7 cells assessed as accumulation at S phase at 4 uM after 24 hrs by propidium iodide staining-based flow cytometric analysis (reference value: 12.23%); type: functional
# MCF7 [6] = assay: Cell cycle arrest in human MCF7 cells assessed as accumulation at G2/M phase at 4 uM after 24 hrs by propidium iodide staining-based flow cytometric analysis (reference value: 27.93%); type: functional
# MCF7 [7] = assay: Cell cycle arrest in human MCF7 cells assessed as accumulation at G0 phase at 4 uM after 24 hrs by propidium iodide staining-based flow cytometric analysis (reference value: 3.36%); type: functional
# MCF7 [8] = assay: Cell cycle arrest in human MCF7 cells assessed as accumulation at S phase at 2 uM after 24 hrs by propidium iodide staining-based flow cytometric analysis (reference value: 12.23%); type: functional
# MCF7 [9] = assay: Cytotoxicity against human MCF7 cells assessed as reduction cell viability after 24 hrs by MTT assay; type: functional, cell-based; conditions: MCF7, 24 h
# MCF7 [10] = assay: Induction of apoptosis in human MCF7 cells assessed as increase in P53 tumor suppressor protein expression at 4 uM after 24 hrs by ELISA; type: functional, cell-based
# MCF7 [11] = assay: Induction of apoptosis in human MCF7 cells assessed as decrease in PARP protein expression at 4 uM after 24 hrs by Western blot analysis; type: functional, cell-based
# MCF7 [12] = assay: Induction of apoptosis in human MCF7 cells assessed as decrease in cyclin D1 expression at 4 uM after 24 hrs by Western blot analysis; type: functional, cell-based
# MCF7 [13] = assay: Induction of apoptosis in human MCF7 cells assessed as increase in P21 tumor suppressor protein expression at 4 uM after 24 hrs by Western blot analysis; type: functional, cell-based
# MCF7 [14] = assay: Induction of apoptosis in human MCF7 cells assessed as increase in P53 tumor suppressor protein expression at 4 uM after 24 hrs by Western blot analysis; type: functional, cell-based
# MCF7 [15] = assay: Induction of DNA in human MCF7 cells assessed as increase in phosphorylated gamma-H2AX foci formation measured by immunoflourosence microscopy relative to control; type: functional
# MCF7 [16] = assay: Induction of apoptosis in human MCF7 cells assessed as increase in active caspase 9 at 4 uM after 24 hrs by Western blot analysis; type: functional, cell-based
SMILES,ΔTm (DNA) [°C],Activity (MCF7 [1]) [%],Activity (MCF7 [2]) [%],Activity (MCF7 [3]) [%],Activity (MCF7 [4]) [%],Activity (MCF7 [5]) [%],Activity (MCF7 [6]) [%],Activity (MCF7 [7]) [%],Activity (MCF7 [8]) [%],IC50 (MCF7 [9]) [µM],Activity (MCF7 [10]),inhibition (MCF7 [11]),inhibition (MCF7 [12]),Activity (MCF7 [13]),Activity (MCF7 [14]),Activity (MCF7 [15]) [%],Activity (MCF7 [16])
COc1cc2c(cc1OCCCCCCN1CCN(C(=O)c3nc(-c4ccccc4)n4ccccc34)CC1)N=C[C@@H]1CCCN1C2=O,8,55.54,4.08,39.25,43.15,16.52,20.15,7.79,10.52,3.74,,,,,,,
COc1ccc(-c2nc(C(=O)N3CCN(CCCCCOc4cc5c(cc4OC)C(=O)N4CCC[C@H]4C=N5)CC3)c3ccccn23)cc1,9.9,53.22,5.57,31.61,52.76,10.42,30.3,6.07,10.06,5.67,,,,,,,
COc1ccc(-c2nc(C(=O)N3CCN(CCCCCCOc4cc5c(cc4OC)C(=O)N4CCC[C@H]4C=N5)CC3)c3ccccn23)cc1,8.9,54.67,5.39,40.53,41.06,8.44,23.56,13.33,13.2,3.68,,,,,,,
COc1ccc(-c2nc(C(=O)N3CCN(CCCOc4cc5c(cc4OC)C(=O)N4CCC[C@H]4C=N5)CC3)c3ccccn23)cc1,8.8,66.92,3.56,31.44,45.35,13.81,13.27,6,19.65,6,,,,,,,
O=C(c1nc(-c2ccc(C(F)(F)F)cc2)n2ccccc12)N1CCNCC1,2.5,,,,,,,,,,,,,,,,
O=C(O)c1nc(-c2ccc(C(F)(F)F)cc2)n2ccccc12,0.3,,,,,,,,,,,,,,,,
COc1cc2c(cc1OCCCCCN1CCN(C(=O)c3nc(-c4ccc(C(F)(F)F)cc4)n4ccccc34)CC1)N=C[C@@H]1CCCN1C2=O,10.2,49.66,5.7,41.41,44.41,6.9,25.32,17.13,8.48,3.16,Active,Active,Active,Active,Active,80,Active
COc1ccc(-c2nc(C(=O)N3CCN(CCCCOc4cc5c(cc4OC)C(=O)N4CCC[C@H]4C=N5)CC3)c3ccccn23)cc1,9.9,59.03,4.51,34.52,51.08,14.04,22.9,7.01,9.89,4.17,,,,,,,
COc1cc2c(cc1OCCCCCN1CCN(C(=O)c3nc(-c4ccccc4)n4ccccc34)CC1)N=C[C@@H]1CCCN1C2=O,9,51.6,4.49,36.5,49.16,10,30.74,7.6,9.84,4.16,,,,,,,
COc1cc2c(cc1OCCCN1CCN(C(=O)c3nc(-c4ccc(C(F)(F)F)cc4)n4ccccc34)CC1)N=C[C@@H]1CCCN1C2=O,8.8,69.36,4.52,32.52,52.63,9.7,14.71,6.23,10.34,5.74,,,,,,,
COc1cc2c(cc1OCCCCCCN1CCN(C(=O)c3nc(-c4ccc(C(F)(F)F)cc4)n4ccccc34)CC1)N=C[C@@H]1CCCN1C2=O,8.7,52.13,3.66,34.09,52.92,9.94,30.79,7.14,9.33,4.28,,,,,,,
COc1cc2c(cc1OCCCCN1CCN(C(=O)c3nc(-c4ccc(C(F)(F)F)cc4)n4ccccc34)CC1)N=C[C@@H]1CCCN1C2=O,10,57.32,3.64,41.29,42.94,8.78,18.71,15.19,12.14,3.26,Active,Active,Active,Active,Active,,Active
COc1cc2c(cc1OCCCN1CCN(C(=O)c3nc(-c4ccccc4)n4ccccc34)CC1)N=C[C@@H]1CCCN1C2=O,8.9,54.44,4.26,28.35,55.54,10.19,30.14,5.23,11.86,7.21,,,,,,,
COc1cc2c(cc1O)N=C[C@@H]1CCCN1C2=O,0.7,54.08,2.83,27.28,53.76,13.76,26.83,5.33,16.13,5,Active,,,Active,Active,,
COc1cc2c(cc1OCCCCN1CCN(C(=O)c3nc(-c4ccccc4)n4ccccc34)CC1)N=C[C@@H]1CCCN1C2=O,8.9,63.74,2.8,31.3,48.87,9.85,20.95,5.47,17.03,7.18,,,,,,,
